Reference: patent US20240100105A1, “BACTERIOPHAGE TREATMENT FOR ACNE AND BIOFILMS” (priority 2017, published 2024)

What was measured:
[1] = test system: P. granulosum clinical isolates 2004-8, 2004-4 and 2002-1; experiment: Spot/drop assay on clinical isolates of P. granulosum (2004-8, 2004-4 and 2002-1); type: cell-based; conditions: Clindamycin 1% gel ~10 μL; Erythromycin 20 μg/mL 5 μL, applied directly to bacterial lawn
Protocol: These bacterial strains show sensitivity to Clindamycin (1% gel, ˜10 μL) and Erythromycin (20 μg/mL, 5 μL) when the antibiotics are applied directly to a bacterial lawn of these strains, but are resistant to all the tested phage.

P. acnes PA1 biofilm = experiment: Efficacy of phage mixtures on P. acnes biofilm; type: cell-based, Propionibacterium acnes; conditions: for Remaining log bacteria after phage or antibiotic treatment of biofilm: phage 10^5 total PFU, Erythromycin 100 μg/mL
Protocol: To test our phage against P. acnes biofilms, the following experiment is performed on biofilms produced in the laboratory. An overnight culture of PA1 is diluted 1:1 with fresh BHIS and incubated for 4 hours at 37° C. after which the culture is once again diluted 1:1 this time with anacrobized BHIS supplemented with 1% glucose (final conc. 0.5%). Next, a 96-well plate (Thermo Fisher Scientific, Waltham, Massachusetts) is seeded with 200 μL of the diluted culture per well. The wells are sealed using 8-well strip caps (Thermo Fisher Scientific, Waltham, Massachusetts). This is incubated for 3 days to let the biofilm form. After 72 hours, 10 μL of either mixture 1 (PAP-12, PA1-9 and PA1-13), mixture 2 (PA7-1, PA1-9 and PA1-13), mixture 3 (PAP-12, PA1-9, PA1-13 and PS7-1) or 2 μL of Erythromycin is added to the relevant wells. The amount of phage added per mixture corresponds to 10^5 total PFU while for the antibiotic Erythromycin, a final concentration of 100 μg/mL (enough to inhibit PA1 growth when not in a biofilm) is used.
At 24 hrs or 48 hrs post-treatment depending on the wells, the medium is carefully removed from each well and the remaining biofilm is picked from each well into a separate Eppendorf tube using a sterile tip. At this point, 1 mL of fresh BHIS is added to the biofilm tubes, sonicated to remove the phage inside for 5 minutes (Elmasonic S 100, at 37 kHz) (Elma Schmidbauer GmbH (Singen, Germany), and centrifuged (4 min, 4000 rpm, 25° C.). The supernatant containing the phage is carefully removed to a clean tube for quantification and the process was repeated a total of 3 times to make sure all phage are removed.
To quantify the surviving bacteria, the pellet is re-suspended in 100 μL BHIS, 10-fold serially diluted in BHIS and plated on BHIS agar plates. The plates are incubated for 72 hrs at 37° C. anaerobically after which the colonies are counted and results rounded to the nearest log. In parallel, the phage quantities inside the biofilm are tested by taking the supernatant set aside earlier, and using the aforementioned plaque assay to assess the original quantities.

## CC[C@H]1OC(=O)[C@H](C)[C@@H](O[C@H]2C[C@@](C)(OC)[C@@H](O)[C@H](C)O2)[C@H](C)[C@@H](O[C@@H]2O[C@H](C)C[C@H](N(C)C)[C@H]2O)[C@](C)(O)C[C@@H](C)C(=O)[C@H](C)[C@@H](O)[C@]1(C)O [Erythromycin]
[1]
  response of P. granulosum isolates to antibiotics: sensitivity
P. acnes PA1 biofilm; 24 hours post treatment
  Remaining log bacteria after phage or antibiotic treatment of biofilm: More than 9 Logs CFU
P. acnes PA1 biofilm; 48 hours post treatment
  Remaining log bacteria after phage or antibiotic treatment of biofilm: 8 Logs CFU
P. acnes PA1 biofilm; after 24 hours
  decrease in bacterial counts in biofilm: no visible decrease
P. acnes PA1 biofilm; after 48 hours
  remaining bacteria per milliliter: 8 logs
